Measurements published in patent US20110097324A1, “COMPOSITIONS AND METHODS FOR MODULATING NICOTINIC/NMDA RECEPTOR FUNCTION” (CENTRE FOR ADDICTION AND MENTAL HEALTH, priority 2008, published 2011).

Experiments:
[1] = tested on: cultured hippocampal neurons; assay type: cell-based, rat; conditions: for mEPSC amplitude 30 min after treatment: glycine 200 μM 3 min, choline 1 mM, AP5 100 μM
Procedure: Primary cultures from hippocampus were prepared from fetal Wistar rats (embryonic day 17-19) on Cell+ (Sarstedt) culture dishes as previously described in (10). The cultures were used for experiments on 12-15 d after plating.
Miniature excitatory postsynaptic currents (mEPSCs) were recorded from cultured hippocampal neurons 2 to 4 weeks days after plating under whole-cell patch clamp configuration (11). Electrodes (3-5 MΩ) were pulled from high lead pipettes (Corning 8161, Warner Instruments). Cells were voltage clamped at −70 mV. Access resistance is below 10 MΩ, recordings with access resistance varying more than 10% were rejected from analysis.
To determine whether activation of α7-nAchR is physiologically relevant in regulating synaptic strength, we examined the ability of α7-nAchR activation to modulate miniature excitatory postsynaptic currents (mEPSCs) during LTP in primary cultures of hippocampal neurons. mEPSCs in hippocampal neurons were recorded under whole-cell configuration. […] The cells were held at −70 mV to avoid potential interference by voltage-gated Ca^++ channels (12,13).

NMDA receptor = assay type: cell-based, rat
CREB = assay type: cell-based, rat
Source text: To confirm that α7 nAChR is responsible for the observed activation of CREB, we measured CREB activity in HEK-293 cells expressing α7 nAChR.

[2] = target: α7-nAchR-NR2A interaction (Rattus norvegicus, UniProt Q00959+Q05941); assay type: cell-based
Sequence of α7-nAchR-NR2A interaction (Q05941 23-502, other chains not shown): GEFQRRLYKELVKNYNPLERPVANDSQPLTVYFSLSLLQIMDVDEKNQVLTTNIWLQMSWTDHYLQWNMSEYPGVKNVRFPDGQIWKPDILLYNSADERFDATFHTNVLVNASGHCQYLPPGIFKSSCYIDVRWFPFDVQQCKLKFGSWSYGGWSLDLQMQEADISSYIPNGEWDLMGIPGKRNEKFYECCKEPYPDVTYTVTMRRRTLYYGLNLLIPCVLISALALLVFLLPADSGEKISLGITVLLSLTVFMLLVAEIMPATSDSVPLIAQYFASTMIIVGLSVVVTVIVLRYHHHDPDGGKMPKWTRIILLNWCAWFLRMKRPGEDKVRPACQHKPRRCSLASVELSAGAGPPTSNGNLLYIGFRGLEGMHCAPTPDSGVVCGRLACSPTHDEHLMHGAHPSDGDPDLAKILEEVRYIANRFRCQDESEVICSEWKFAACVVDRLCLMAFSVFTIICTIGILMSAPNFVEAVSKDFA
Sequence of α7-nAchR-NR2A interaction (Q00959 20-1464, other chains not shown): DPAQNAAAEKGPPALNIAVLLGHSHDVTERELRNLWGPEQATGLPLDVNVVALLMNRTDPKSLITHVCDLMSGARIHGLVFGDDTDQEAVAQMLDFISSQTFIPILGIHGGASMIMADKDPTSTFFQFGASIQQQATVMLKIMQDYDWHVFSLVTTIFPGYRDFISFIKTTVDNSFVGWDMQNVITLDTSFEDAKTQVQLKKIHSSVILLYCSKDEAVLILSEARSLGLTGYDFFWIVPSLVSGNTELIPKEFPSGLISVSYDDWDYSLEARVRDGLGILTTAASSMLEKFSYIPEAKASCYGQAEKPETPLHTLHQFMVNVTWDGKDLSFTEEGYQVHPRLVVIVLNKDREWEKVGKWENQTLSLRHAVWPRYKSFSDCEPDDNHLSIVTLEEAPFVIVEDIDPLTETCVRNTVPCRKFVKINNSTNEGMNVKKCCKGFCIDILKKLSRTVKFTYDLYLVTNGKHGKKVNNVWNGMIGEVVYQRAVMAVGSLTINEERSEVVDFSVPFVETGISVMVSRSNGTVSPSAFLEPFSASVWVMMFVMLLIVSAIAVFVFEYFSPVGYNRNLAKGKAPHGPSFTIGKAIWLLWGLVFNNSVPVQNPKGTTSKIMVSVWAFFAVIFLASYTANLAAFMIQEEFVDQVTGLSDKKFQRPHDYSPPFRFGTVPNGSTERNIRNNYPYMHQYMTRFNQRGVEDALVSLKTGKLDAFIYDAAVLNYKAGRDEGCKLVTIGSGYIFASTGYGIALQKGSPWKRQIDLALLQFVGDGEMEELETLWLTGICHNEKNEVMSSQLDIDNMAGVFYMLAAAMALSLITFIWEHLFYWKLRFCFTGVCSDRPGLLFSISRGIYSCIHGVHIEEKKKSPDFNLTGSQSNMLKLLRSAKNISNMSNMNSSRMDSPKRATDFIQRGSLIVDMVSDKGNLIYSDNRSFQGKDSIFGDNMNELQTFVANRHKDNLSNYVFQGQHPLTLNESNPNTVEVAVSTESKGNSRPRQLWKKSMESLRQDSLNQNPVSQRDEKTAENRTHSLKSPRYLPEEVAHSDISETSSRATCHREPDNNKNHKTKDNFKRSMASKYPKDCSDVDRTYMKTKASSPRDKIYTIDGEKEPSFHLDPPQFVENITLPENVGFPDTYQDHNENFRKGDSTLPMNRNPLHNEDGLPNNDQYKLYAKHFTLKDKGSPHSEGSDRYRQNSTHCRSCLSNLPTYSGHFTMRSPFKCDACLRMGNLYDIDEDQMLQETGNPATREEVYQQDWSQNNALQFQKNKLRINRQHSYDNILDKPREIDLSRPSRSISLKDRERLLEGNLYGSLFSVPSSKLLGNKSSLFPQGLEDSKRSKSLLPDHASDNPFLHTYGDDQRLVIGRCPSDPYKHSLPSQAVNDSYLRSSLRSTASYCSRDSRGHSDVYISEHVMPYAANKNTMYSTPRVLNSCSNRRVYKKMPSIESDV
Procedure: To examine the effect of α7-nAchR activation on the interaction between α7-nAchR and NMDA receptors, we examined the ability of antibody against NR2A subunit to co-precipitate with the α7-nAchR in hippocampal primary culture treated with 1 mM choline or choline/NMDA (50 μM).

α7 nAChR: NR2A complex = conditions: in vivo, 6 mg/kg/day
Procedure: Thus, we pretreated rats with either nicotine or saline for 7 days subdermally (osmotic mini-pump, 6 mg/kg/day), and the expression of NR2A and α7 nAChR was examined in Western blot analysis.

With `NC(CCCP(=O)(O)O)C(=O)O` (stereo not drawn) [AP5] the “effect on amplitude of mEPSCs” value [1] was “can be abolished”.

With `C[C@]12N[C@H](Cc3ccccc31)c1ccccc12` [MK-801] the “block of enhancement of whole cell current induced by co-application of choline with NMDA” value (NMDA receptor) was “can be blocked”.

For `CCN1C[C@]2(COC(=O)c3ccccc3N3C(=O)C[C@H](C)C3=O)CC[C@H](OC)[C@@]34[C@@H]5C[C@H]6[C@H](OC)[C@@H]5[C@](O)(C[C@@H]6OC)[C@](O)([C@@H](OC)[C@H]23)[C@@H]14` [MLA], the “block of nicotine-enhanced CREB activity” value (CREB) was “can be blocked”.

For `CN[C@H](CC(=O)O)C(=O)O` [NMDA, N-methyl-D-aspartate], the “α7-nAchR-NR2A interaction after treatment” value [2] was “no significant effect”.

For `C[N+](C)(C)CCO` [choline], the “mEPSC amplitude 30 min after treatment” value [1] was 31.4+/−2.7 pA.

In the case of `NCC(=O)O` [glycine], the “mEPSC amplitude 30 min after treatment” value [1] is reported as 26.5+/−2.3 pA.

For `CN1CCCC1c1cccnc1` (stereo not drawn) [nicotine], the “expression of NR2A or α7 nAChR in rat hippocampus” value (α7 nAChR: NR2A complex) was “no significant difference” and the “α7 nAChR: NR2A complex formation in rat hippocampus” value (α7 nAChR: NR2A complex) was “significantly enhanced”.

α-bungarotoxin was tested, and the “block of enhancement of whole cell current induced by co-application of choline with NMDA” value (NMDA receptor) was “can abolish the choline induced upregulation of NMDA-mediated current”.
